Measurements published in patent US10376481B2, “Compounds and methods for inhibiting NHE-mediated antiport in the treatment of disorders associated with fluid retention or salt overload and gastrointestinal tract disorders” (ARDELYX, INC, priority 2012, dated 2019).

Key:
human NHE3 = target: T1, human NHE3 (Homo sapiens, UniProt P48764); test: Cell-based assay of NHE-3 activity (human NHE3 inhibition assay); design: expressed in transfected cells; host or cells: Opossum kidney (OK) cells (ATCC), electroporated; settings: OK cells with human NHE-3 gene, BCECF pH recovery, 0-30 μM test compound; read-out: Human NHE3 pIC50 (converted)
T1 sequence (P48764 26-834): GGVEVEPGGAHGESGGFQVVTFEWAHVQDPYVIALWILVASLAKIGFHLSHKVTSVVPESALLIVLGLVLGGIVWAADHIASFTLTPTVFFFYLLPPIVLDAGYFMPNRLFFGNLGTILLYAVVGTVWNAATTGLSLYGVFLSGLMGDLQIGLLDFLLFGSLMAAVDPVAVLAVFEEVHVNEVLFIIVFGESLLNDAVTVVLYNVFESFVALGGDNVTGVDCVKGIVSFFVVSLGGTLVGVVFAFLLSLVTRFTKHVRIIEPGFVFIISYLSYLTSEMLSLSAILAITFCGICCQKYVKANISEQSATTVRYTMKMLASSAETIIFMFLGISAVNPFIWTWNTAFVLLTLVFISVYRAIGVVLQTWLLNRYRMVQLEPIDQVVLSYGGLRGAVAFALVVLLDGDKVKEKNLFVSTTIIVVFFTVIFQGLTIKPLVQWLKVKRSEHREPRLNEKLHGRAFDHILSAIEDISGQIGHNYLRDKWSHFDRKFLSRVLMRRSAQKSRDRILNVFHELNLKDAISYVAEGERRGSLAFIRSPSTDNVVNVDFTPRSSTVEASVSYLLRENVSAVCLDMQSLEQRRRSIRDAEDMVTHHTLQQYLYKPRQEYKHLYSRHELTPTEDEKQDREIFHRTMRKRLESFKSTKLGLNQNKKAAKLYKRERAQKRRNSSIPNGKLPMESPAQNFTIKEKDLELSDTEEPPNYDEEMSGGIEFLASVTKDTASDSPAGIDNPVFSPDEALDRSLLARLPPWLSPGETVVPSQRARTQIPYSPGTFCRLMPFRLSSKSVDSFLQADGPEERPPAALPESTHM
Method: Rat or human NHE-3-mediated Na^+-dependent H^+ antiport was measured using a modification of the pH sensitive dye method originally reported by Paradiso (Proc. Natl. Acad. Sci. USA. (1984) 81(23): 7436-7440). Opossum kidney (OK) cells were obtained from the ATCC and propagated per their instructions. The rat NHE-3 gene (GenBank M85300) or the human NHE-3 gene (GenBank NM_004174.1) was introduced into OK cells via electroporation, and cells were seeded into 96 well plates and grown overnight. Medium was aspirated from the wells, cells were washed twice with NaCl-HEPES buffer (100 mM NaCl, 50 mM HEPES, 10 mM glucose, 5 mM KCl, 2 mM CaCl2, 1 mM MgCl2, pH 7.4), then incubated for 30 min at room temperature with NH4Cl-HEPES buffer (20 mM NH4Cl, 80 mM NaCl, 50 mM HEPES, 5 mM KCl, 2 mM CaCl2, 1 mM MgCl2, pH 7.4) containing 5 μM bis(acetoxymethyl) 3,3′-(3′,6′-bis(acetoxymethoxy)-5-((acetoxymethoxy)carbonyl)-3-oxo-3H-spiro[isobenzofuran-1,9′-xanthene]-2′,7′-diyl)dipropanoate (BCECF-AM). Cells were washed twice with Ammonium free, Na^+-free HEPES (100 mM choline, 50 mM HEPES, 10 mM glucose, 5 mM KCl, 2 mM CaCl2, 1 mM MgCl2, pH 7.4) and incubated in the same buffer for 10 minutes at room temperature to lower intracellular pH. […] Initial rates were plotted as the average 2 or more replicates, and pIC50 values were estimated using GraphPad Prism.

[1] = system: absorption of sodium from the intestinal lumen; test: Inhibition of intestinal sodium absorption: rat urinary sodium and fecal form 16 h post-dose; type: in vivo, Sprague-Dawley rats; settings: for FFS (fecal form score): 16 h post-dose, scale 1-5, group average; for response vs control in vivo at 10 mg/kg / response vs control in vivo at 3 mg/kg: urine 16 h post-dose, read-out: uNa Result, uNa (% of vehicle)
Method: Urinary sodium concentration and fecal form were measured to assess the ability of selected example compounds to inhibit the absorption of sodium from the intestinal lumen. Eight-week old Sprague-Dawley rats were purchased from Charles River Laboratories (Hollister, Calif.), were housed 2 per cage, and acclimated for at least 3 days before study initiation. Animals were fed Harlan Teklad Global 2018 rodent chow (Indianapolis, Ind.) and water ad libitum throughout the study and maintained in a standard light/dark cycle of 6 AM to 6 PM. On the day of the study, between 4 PM and 5 PM, a group of rats (n=6) were dosed via oral gavage with test compound or vehicle (water) at a volume of 10 mL/kg. After dose administration animals were placed in individual metabolic cages where they were also fed the same chow in meal form and watered ad libitum. At 16 h post-dose, the urine samples were collected and fecal form was assessed by two independent observations. Fecal forms were scored according to a common scale associated with increasing fecal water to the wettest observation in the cage's collection funnel (1, normal pellet; 2, pellet adhering to sides of collection funnel due to moisture; 3, loss of normal pellet shape; 4, complete loss of shape with a blotting pattern; 5, liquid fecal streams evident). A rat's fecal form score (FFS) was determined by averaging both observational scores for all rats within a group (n=6). The vehicle group average was 1. For urine samples, the volumes were determined gravimetrically and centrifuged at 3,600×g. The supernatants were diluted 100-fold in deionized Milli-Q water then filtered through a 0.2 μm GHP Pall AcroPrep filter plate (Pall Life Sciences, Ann Arbor, Mich.) prior to analysis by ion chromatography. Ten microliters of each filtered extract was injected onto a Dionex ICS-3000 ion chromatograph system (Dionex, Sunnyvale, Calif.). Cations were separated by an isocratic method using 25 mM methanesulfonic acid as the eluent on an IonPac CS12A 2 mm i.d.×250 mm, 8 μm particle size cation exchange column (Dionex). Sodium was quantified using standards prepared from a cation standard mix containing Li^+, Na^+, NH4^+, K^+, Mg^2+, and Ca^2+ (Dionex). The mean mass of sodium urinated for every group in the 16 h period was determined with the vehicle group usually urinating approximately 21 mg sodium. The urine Na (uNa) for rats in the test groups were expressed as a percentage of the vehicle mean and the means were compared to that of the vehicle group by utilizing a one-way analysis of variance coupled with a Dunnett's post hoc test.

Row | Structure (SMILES) | IC50 (human NHE3) [nM] | FFS (fecal form score) ([1]; oral gavage 10 mg/kg) | response vs control in vivo at 10 mg/kg ([1]; oral gavage 10 mg/kg) [%] | response vs control in vivo at 3 mg/kg ([1]; oral gavage 3 mg/kg) [%] | FFS (fecal form score) ([1]; oral gavage 3 mg/kg)
1 | O=C(NCCOCCOCCNS(=O)(=O)c1ccc(O[C@H]2c3ccccc3C[C@@H]2N2CCCCC2)cc1)c1ccc(C(=O)NCCOCCOCCNS(=O)(=O)c2ccc(O[C@H]3c4ccccc4C[C@@H]3N3CCCCC3)cc2)cc1 [Example 6, N1,N4-bis(2-(2-(2-(4-((1S,2S)-2-(piperidin-1-yl)-2,3-dihydro-1H-inden-1-yloxy)phenylsulfonamido)ethoxy)ethoxy)ethyl)terephthalamide] | < 100 | 1 | 35 to 75 | – | –
2 | CC(C)(C(=O)NCCOCCOCCOCCNS(=O)(=O)c1ccc(O[C@H]2c3ccccc3C[C@@H]2N2CCCCC2)cc1)C(=O)NCCOCCOCCOCCNS(=O)(=O)c1ccc(O[C@H]2c3ccccc3C[C@@H]2N2CCCCC2)cc1 [Example 7, 2,2-dimethyl-N1,N3-bis(2-(2-(2-(2-(4-((1S,2S)-2-(piperidin-1-yl)-2,3-dihydro-1H-inden-1-yloxy)phenylsulfonamido)ethoxy)ethoxy)ethoxy)ethyl)malonamide] | < 100 | – | 35 to 75 | – | –
3 | CN(C)[C@H]1Cc2c(Cl)cc(Cl)cc2[C@@H]1Oc1ccc(S(=O)(=O)NCCOCCOCCNC(=O)CCC(=O)NCCOCCOCCNS(=O)(=O)c2ccc(O[C@H]3c4cc(Cl)cc(Cl)c4C[C@@H]3N(C)C)cc2)cc1 [Example 8, N1,N4-bis(2-(2-(2-(4-((1S,2S)-4,6-dichloro-2-(dimethylamino)-2,3-dihydro-1H-inden-1-yloxy)phenylsulfonamido)ethoxy)ethoxy)ethyl)succinamide] | < 100 | – | – | 35 to 75 | –
4 | CN(C)[C@H]1Cc2c(Cl)cc(Cl)cc2[C@@H]1Oc1ccc(S(=O)(=O)NCCOCCOCCNC(=O)CCC(C)(CCC(=O)NCCOCCOCCNS(=O)(=O)c2ccc(O[C@H]3c4cc(Cl)cc(Cl)c4C[C@@H]3N(C)C)cc2)NC(=O)CCC(=O)O)cc1 [Example 12, 1-(4-((1S,2S)-4,6-dichloro-2-(dimethylamino)-2,3-dihydro-1H-inden-1-yloxy)phenylsulfonamido)-13-(3-(2-(2-(2-(4-((1S,2S)-4,6-dichloro-2-(dimethylamino)-2,3-dihydro-1H-inden-1-yloxy)phenylsulfonamido)ethoxy)ethoxy)ethylamino)-3-oxopropyl)-13-methyl-10,15-dioxo-3,6-dioxa-9,14-diazaoctadecan-18-oic Acid] | < 100 | – | – | 35 to 75 | –
5 | O=C(NCCCCNC(=O)NCCOCCOCCNS(=O)(=O)c1ccc(O[C@H]2c3ccccc3C[C@@H]2N2CCCC2)cc1)NCCOCCOCCNS(=O)(=O)c1ccc(O[C@H]2c3ccccc3C[C@@H]2N2CCCC2)cc1 [Example 19] | > 10000 | – | 35 to 75 | – | –
6 | CN(C)[C@H]1Cc2c(Cl)cc(Cl)cc2[C@@H]1Oc1ccc(S(=O)(=O)N(C)CCOCCOCCNC(=O)NCCCCNC(=O)NCCOCCOCCN(C)S(=O)(=O)c2ccc(O[C@H]3c4cc(Cl)cc(Cl)c4C[C@@H]3N(C)C)cc2)cc1 [Example 26] | < 100 | 1 | 35 to 75 | – | –
7 | CN(C)[C@H]1Cc2c(Cl)cc(Cl)cc2[C@@H]1Oc1ccc(S(=O)(=O)NCCOCCOCCNC(=O)Nc2ccc(NC(=O)NCCOCCOCCNS(=O)(=O)c3ccc(O[C@H]4c5cc(Cl)cc(Cl)c5C[C@@H]4N(C)C)cc3)cc2)cc1 [Example 27] | < 100 | 1 | < 35 | – | –
8 | O=C(NCCOCCOCCNS(=O)(=O)c1ccc(O[C@H]2c3ccccc3C[C@@H]2N2CCCCC2)cc1)[C@H](O)[C@@H](O)C(=O)NCCOCCOCCNS(=O)(=O)c1ccc(O[C@H]2c3ccccc3C[C@@H]2N2CCCCC2)cc1 [Example 32] | < 100 | – | > 75 | – | –
9 | O=C(NCCOCCOCCNS(=O)(=O)c1ccc(O[C@H]2c3ccccc3C[C@@H]2N2CCCCC2)cc1)c1cccc(C(=O)NCCOCCOCCNS(=O)(=O)c2ccc(O[C@H]3c4ccccc4C[C@@H]3N3CCCCC3)cc2)c1 [Example 33] | < 100 | – | 35 to 75 | – | –
10 | O=C(NCCOCCOCCOCCNS(=O)(=O)c1ccc(O[C@H]2c3ccccc3C[C@@H]2N2CCCCC2)cc1)c1ccc(C(=O)NCCOCCOCCOCCNS(=O)(=O)c2ccc(O[C@H]3c4ccccc4C[C@@H]3N3CCCCC3)cc2)cc1 [Example 34] | < 100 | – | > 75 | – | –
11 | O=C(NCCOCCOCCOCCNS(=O)(=O)c1ccc(O[C@H]2c3ccccc3C[C@@H]2N2CCCCC2)cc1)c1cccc(C(=O)NCCOCCOCCOCCNS(=O)(=O)c2ccc(O[C@H]3c4ccccc4C[C@@H]3N3CCCCC3)cc2)c1 [Example 35] | < 100 | – | > 75 | – | –
12 | CC(N)(CCC(=O)NCCOCCOCCNS(=O)(=O)c1ccc(O[C@H]2c3ccccc3C[C@@H]2N2CCCCC2)cc1)CCC(=O)NCCOCCOCCNS(=O)(=O)c1ccc(O[C@H]2c3ccccc3C[C@@H]2N2CCCCC2)cc1 [Example 37] | < 100 | 1 | 35 to 75 | – | –
13 | O=C(NCCCCNC(=O)NCCOCCOCCNC(=O)Nc1ccc(O[C@H]2c3ccccc3C[C@@H]2N2CCCCC2)cc1)NCCOCCOCCNC(=O)Nc1ccc(O[C@H]2c3ccccc3C[C@@H]2N2CCCCC2)cc1 [Example 38] | < 100 | – | – | > 75 | 1
